# Measured values: US20210100897A1, “METHODS FOR THE STIMULATION OF DENDRITIC CELL (DC) PRECURSOR POPULATION "PRE-DC" AND THEIR USES THEREOF” (AGENCY FOR SCIENCE, TECHNOLOGY AND RESEARCH, priority 2017, published 2021)
# Key:
# Assay type in all cases: cell-based, human
# pDC [1] = assay: Intracellular cytokine detection following stimulation with TLR ligands (PBMC, flow cytometry), pDC; settings: PBMC stimulated 6 h with TLR agonist
# Description: All antibodies used for fluorescence-activated cell sorting (FACS) and flow cytometry were mouse anti-human monoclonal antibodies (mAbs), except for chicken anti-human CADM1 IgY primary mAb. Briefly, 5×10^6 cells/tube were washed and incubated with Live/Dead blue dye (Invitrogen) for 30 min at 4° C. in phosphate buffered saline (PBS) and then incubated in 5% heat-inactivated fetal calf serum (FCS) for 15 min at 4° C. (Sigma Aldrich). The appropriate antibodies diluted in PBS with 2% fetal calf serum (FCS) and 2 mM EDTA were added to the cells and incubated for 30 min at 4° C., and then washed and detected with the secondary reagents. For intra-cytoplasmic or intra-nuclear labeling or staining, cells were fixed and permeabilized with BD Cytofix/Cytoperm (BD Biosciences) or with eBioscience FoxP3/Transcription Factor Staining Buffer Set (eBioscience/Affimetrix), respectively according to the manufacturer's instructions. Flow cytometry was performed using a BD LSRII or a BD FACSFortessa (BD Biosciences) and the data analyzed using BD FACSDiva 6.0 (BD Biosciences) or FlowJo v.10 (Tree Star Inc.). For isolation of precursor dendritic cells (pre-DC), PBMC were first depleted of T cells, monocytes and B cells with anti-CD3, anti-CD14 and anti-CD20 microbeads (Miltenyi Biotec) using an AutoMACS Pro Separator (Miltenyi Biotec) according to the manufacturer's instructions. […]
# pre-DC = assay: Luminex Drop Array assay on sorted and stimulated pre-DC, culture supernatants; settings: TLR7/8 or TLR9 stimulation; FIG. 2G and FIG. 13
# Description: (§1) A total of 2,000 cells/well of sorted pre-DC and DC subsets were seeded in V-bottom 96 well plates and then incubated for 18 h in 50 μL complete RPMI-1640 Glutmax media (Life Technologies) supplemented with 10% FBS and 1% penicillin/streptomycin, and stimulated with either LPS, LPS+IFNγ, Flagellin, polyI:C, Imidazoquinoline or CpG oligodeoxynucleotides (ODN) 2216. Cells were then pelleted and 30 μL supernatant was collected. A Luminex® Drop Array™ was performed using 5 μL of the supernatant. Human G-CSF, GM-CSF, IFN-α2, IL-10, IL-12p40, IL-12p70, IL-15, IL-1RA, IL-1a, IL-1b, IL-6, IL-7, IL-8, MIP-1b, TNF-α, TNF-β were tested by multiplexing (EMD Millipore) with DropArray-bead plates (Curiox) according to the manufacturer's instructions. Acquisition was performed using xPONENT 4.0 (Luminex) acquisition software, and data analysis was performed using Bio-Plex Manager 6.1.1 (Bio-Rad).
# pDC [2] = assay: Luminex Drop Array assay on sorted and stimulated pDC, culture supernatants; settings: TLR7/8 or TLR9 stimulation; FIG. 2G and FIG. 13
# Description: as §1
smiles,measurement,setting,value
CCOCc1nc2c([nH]1)c(N)nc1ccccc12 [CL097],IFN-α production by pDC,pDC [1],robust
same,IL-12p40 secretion by pre-DC,pre-DC,readily secreted
same,IFNα secretion by pure pDC cultures,pDC [2],abundant secretion
same,IL-12p40 secretion by pure pDC cultures,pDC [2],but not IL-12p40
